Laboratory results from patent US10759783B2, “Biaryl inhibitors of Bruton'S tyrosine kinase” (BIOGEN MA INC., priority 2013, dated 2020).

What was measured:
[1] = target: T1, BTK enzyme (Homo sapiens, UniProt Q06187); experiment: In vitro BTK kinase assay: BTK-POLYGAT-LS assay; format: biochemical; details: ATP 10 μM, read-out: IC50 (10uMATP)
T1 construct: purchased Upstate 14-552
How it was run: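 Human BTK activity was measured with final 10 μM ATP and 100 nM polyGAT substrate in pH 7.5 Tris buffer with 10 mM MgCl2, DTT, Triton X-100 and casein.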

[2] = target: BTK (phospho-BTK) in human whole blood (Homo sapiens, UniProt Q06187); experiment: In vitro PD assay in human whole blood (pBTK assay)
Sequence of BTK (phospho-BTK) in human whole blood (Q06187 whole entry): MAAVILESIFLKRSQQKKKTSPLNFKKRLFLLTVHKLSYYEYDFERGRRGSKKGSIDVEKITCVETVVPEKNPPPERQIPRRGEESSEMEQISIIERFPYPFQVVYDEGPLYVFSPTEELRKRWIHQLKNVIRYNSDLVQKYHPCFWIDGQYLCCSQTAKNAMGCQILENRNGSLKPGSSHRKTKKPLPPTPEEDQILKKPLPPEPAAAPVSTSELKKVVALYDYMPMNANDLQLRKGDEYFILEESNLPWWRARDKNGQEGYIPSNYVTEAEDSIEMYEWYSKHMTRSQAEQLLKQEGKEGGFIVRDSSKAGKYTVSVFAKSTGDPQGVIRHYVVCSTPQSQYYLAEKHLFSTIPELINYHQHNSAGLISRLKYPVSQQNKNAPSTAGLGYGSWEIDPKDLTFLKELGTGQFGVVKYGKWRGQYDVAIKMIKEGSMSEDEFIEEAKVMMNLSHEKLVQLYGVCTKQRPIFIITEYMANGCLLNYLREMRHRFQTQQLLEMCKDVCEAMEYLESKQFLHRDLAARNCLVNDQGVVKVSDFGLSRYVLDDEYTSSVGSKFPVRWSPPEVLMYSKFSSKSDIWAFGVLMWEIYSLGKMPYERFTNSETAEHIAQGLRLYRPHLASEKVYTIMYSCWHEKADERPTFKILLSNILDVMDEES

T1 sequence (Q06187 whole entry): as above

Structure (SMILES)	IC50 [1] [nM]	IC50 [2] [nM]
CC(C)n1cc(Nc2nccc(-c3ccc(CNC(=O)N4CC(OC(C)(C)C)C4)c(C(F)(F)F)c3)n2)cn1 [Example I-199, 3-(tert-butoxy)-N-(4-(2-((1-isopropyl-1H-pyrazol-4-yl)amino)pyrimidin-4-yl)-2-(trifluoromethyl)benzyl)azetidine-1-carboxamide]	< 10	< 500
Cc1cc(-c2ccnc(Nc3cnn(C)c3)n2)ccc1CNC(=O)N1CC[C@@H](C(C)C)C1 [Example I-255, (3S)-3-isopropyl-N-[[2-methyl-4-[2-[(1-methylpyrazol-4-yl)amino]pyrimidin-4-yl]phenyl]methyl]pyrrolidine-1-carboxamide]	< 10	< 500
Cc1cc(-c2cc(Nc3cc4n(n3)CCN(C)C4)ncn2)ccc1CNC(=O)N1CC(OC(C)C)C1 [Example I-121, 3-isopropoxy-N-(2-methyl-4-(6-((5-methyl-4,5,6,7-tetrahydropyrazolo[1,5-a]pyrazin-2-yl)amino)pyrimidin-4-yl)benzyl)azetidine-1-carboxamide]	< 10	< 500
COCCn1cc(Nc2nccc(-c3ccc(CNC(=O)N4CCC(C(C)(C)C)C4)c(C(F)(F)F)c3)n2)cn1 (stereo not drawn) [Example I-295, 3-tert-butyl-N-[[4-[2-[[1-(2-methoxyethyl)pyrazol-4-yl]amino]pyrimidin-4-yl]-2-(trifluoromethyl)phenyl]methyl]pyrrolidine-1-carboxamide]	< 10	< 500
Cc1cc(-c2cc(Nc3cc4n(n3)CCNC4)ncn2)ccc1CNC(=O)c1cnn(C(C)(C)C)c1 [Example I-231, 1-(tert-butyl)-N-(2-methyl-4-(6-((4,5,6,7-tetrahydropyrazolo[1,5-a]pyrazin-2-yl)amino)-pyrimidin-4-yl)benzyl)-1H-pyrazole-4-carboxamide]	< 10	< 500
CC(C)OC1CN(C(=O)NC2CCCCc3cc(-c4ccnc(Nc5cnn(C(C)C)c5)n4)ccc32)C1 (stereo not drawn) [Example I-167, 3-isopropoxy-N-(2-(2-((1-isopropyl-1H-pyrazol-4-yl)amino)pyrimidin-4-yl)-6,7,8,9-tetrahydro-5H-benzo[7]annulen-5-yl)azetidine-1-carboxamide]	< 10	< 500
Cc1cc(-c2cc(Nc3cc4c(cn3)CNCC4)ncn2)ccc1CNC(=O)c1cnc(C(C)(C)C)s1 [Example I-267, 2-tert-butyl-N-[[2-methyl-4-[6-(5,6,7,8-tetrahydro-2,7-naphthyridin-3-ylamino)pyrimidin-4-yl]phenyl]methyl]thiazole-5-carboxamide]	< 10	< 500
COCCn1cc(Nc2nccc(-c3ccc4c(c3)CCCC[C@H]4NC(=O)N3CC(OC(C)(C)C)C3)n2)cn1 [Example I-176, (R)-3-(tert-butoxy)-N-(2-(2-((1-(2-methoxyethyl)-1H-pyrazol-4-yl)amino)pyrimidin-4-yl)-6,7,8,9-tetrahydro-5H-benzo[7]annulen-5-yl)azetidine-1-carboxamide]	< 10	< 500
CC(C)C1CCN(C(=O)NC2CCCCc3cc(-c4ccnc(Nc5cnn(CCO)c5)n4)ccc32)C1 (stereo not drawn) [Example I-181, N-(2-(2-((1-(2-hydroxyethyl)-1H-pyrazol-4-yl)amino)pyrimidin-4-yl)-6,7,8,9-tetrahydro-5H-benzo[7]annulen-5-yl)-3-isopropylpyrrolidine-1-carboxamide]	< 10	< 500
Cc1cc(-c2ccnc(Nc3cnn(C4CCC(C(=O)O)CC4)c3)n2)ccc1CNC(=O)c1cnn(C(C)(C)C)c1 (stereo not drawn) [Example I-292, 4-[4-[[4-[4-[[(1-tert-butylpyrazole-4-carbonyl)amino]methyl]-3-methyl-phenyl]pyrimidin-2-yl]amino]pyrazol-1-yl]cyclohexanecarboxylic acid]	< 10	< 500
Cc1cc(-c2ccnc(Nc3cnn(C)c3)n2)ccc1CNC(=O)c1cc2c(s1)CCCC2 [Example I-5, N-(2-methyl-4-(2-((1-methyl-1H-pyrazol-4-yl)amino)pyrimidin-4-yl)benzyl)-4,5,6,7-tetrahydrobenzo[b]thiophene-2-carboxamide]	< 10	500 to 1500
Cc1cc(-c2cc(Nc3cc4n(n3)CCCN(CCO)C4)ncn2)ccc1CNC(=O)c1cnc(C(C)(C)C)s1 [Example I-285, 2-tert-butyl-N-[[4-[6-[[5-(2-hydroxyethyl)-4,6,7,8-tetrahydropyrazolo[1,5-a][1,4]diazepin-2-yl]amino]pyrimidin-4-yl]-2-methyl-phenyl]methyl]thiazole-5-carboxamide]	< 10	< 500
CN1CCC(n2cc(Nc3nccc(-c4ccc(CNC(=O)N5CC(OC(C)(C)C)C5)c(C(F)(F)F)c4)n3)cn2)CC1 [Example I-200, 3-(tert-butoxy)-N-(4-(2-((1-(1-methylpiperidin-4-yl)-1H-pyrazol-4-yl)amino)pyrimidin-4-yl)-2-(trifluoromethyl)benzyl)azetidine-1-carboxamide]	< 10	< 500
Cc1cc(-c2ccnc(Nc3cnn(CCO)c3)n2)ccc1CNC(=O)c1cnc(C(C)(C)C)s1 [Example I-37, 2-(tert-butyl)-N-(4-(2-((1-(2-hydroxyethyl)-1H-pyrazol-4-yl)amino)pyrimidin-4-yl)-2-methylbenzyl)thiazole-5-carboxamide]	< 10	< 500
Cc1cc(-c2ccnc(Nc3cnn(C)c3)n2)ccc1CNC(=O)N1CCC(C(F)(F)F)CC1 [Example I-19, N-(2-methyl-4-(2-((1-methyl-1H-pyrazol-4-yl)amino)pyrimidin-4-yl)benzyl)-4-(trifluoromethyl)piperidine-1-carboxamide]	< 10	500 to 1500
CC(C)OC1CN(C(=O)NC2CCCOc3cc(-c4ccnc(Nc5cnn(C)c5)n4)ccc32)C1 (stereo not drawn) [Example I-335, 3-isopropoxy-N-[8-[2-[(1-methylpyrazol-4-yl)amino]pyrimidin-4-yl]-2,3,4,5-tetrahydro-1-benzoxepin-5-yl]azetidine-1-carboxamide]	< 10	< 500
CC(C)OC1CN(C(=O)NC2CCCCc3cc(-c4ccnc(Nc5cnn([C@H]6CCOC6)c5)n4)ccc32)C1 (stereo partly drawn) [Example I-338, 3-isopropoxy-N-[2-[2-[[1-[(3S)-tetrahydrofuran-3-yl]pyrazol-4-yl]amino]pyrimidin-4-yl]-6,7,8,9-tetrahydro-5H-benzo[7]annulen-5-yl]azetidine-1-carboxamide]	< 10	< 500
Cc1c(Nc2nccc(-c3ccc4c(c3)CCCCC4NC(=O)N3CC(OC(C)(C)C)C3)n2)cnn1C (stereo not drawn) [Example I-347, 3-tert-butoxy-N-[2-[2-[(1,5-dimethylpyrazol-4-yl)amino]pyrimidin-4-yl]-6,7,8,9-tetrahydro-5H-benzo[7]annulen-5-yl]azetidine-1-carboxamide]	< 10	< 500
CC(C)(C)C1CCN(C(=O)NCc2ccc(-c3ccnc(Nc4cnn(C5CCNC5)c4)n3)cc2C(F)(F)F)C1 [Example I-318, 3-tert-butyl-N-[8 4-[2-[[1-[(3R)-pyrrolidin-3-yl]pyrazol-4-yl]amino]pyrimidin-4-yl]-2-(trifluoromethyl)phenyl]methyl]pyrrolidine-1-carboxamide]	< 10	< 500
Cc1cc(-c2cc(Nc3cc4n(n3)CCN(CCO)C4)ncn2)ccc1CNC(=O)c1cnn(C(C)(C)C)c1 [Example I-233, 1-(tert-butyl)-N-(4-(6-((5-(2-hydroxyethyl)-4,5,6,7-tetrahydropyrazolo[1,5-a]pyrazin-2-yl)amino)pyrimidin-4-yl)-2-methylbenzyl)-1H-pyrazole-4-carboxamide]	< 10	< 500
Cc1cc(-c2ccnc(Nc3cnn(C4CCN(C)CC4)c3)n2)ccc1CNC(=O)c1cnc(C(C)(C)C)s1 [Example I-46, 2-(tert-butyl)-N-(2-methyl-4-(2-((1-(1-methylpiperidin-4-yl)-1H-pyrazol-4-yl)amino)pyrimidin-4-yl)benzyl)thiazole-5-carboxamide]	< 10	< 500
CC(C)(C)C1CCN(C(=O)NC2CCCc3cc(-c4ccnc(Nc5cnn(CCO)c5)n4)ccc32)C1 (stereo not drawn) [Example I-327]	< 10	< 500
Cc1cc(-c2cc(Nc3cc4n(n3)CCN(C)C4C)ncn2)ccc1CNC(=O)N1CCC(C(C)(C)C)C1 (stereo not drawn) [Example I-284, 3-tert-butyl-N-[[4-[6-[(4,5-dimethyl-6,7-dihydro-4H-pyrazolo[1,5-a]pyrazin-2-yl)amino]pyrimidin-4-yl]-2-methyl-phenyl]methyl]pyrrolidine-1-carboxamide]	< 10	< 500
Cc1cc(-c2ccnc(Nc3cnn(C(C)C)c3)n2)ccc1CNC(=O)c1cnc(C(C)(C)C)s1 [Example I-41, 2-(tert-butyl)-N-(4-(2-((1-isopropyl-1H-pyrazol-4-yl)amino)pyrimidin-4-yl)-2-methylbenzyl)thiazole-5-carboxamide]	< 10	< 500
Cc1cc(-c2ccnc(Nc3cnn(C)c3)n2)ccc1CNC(=O)c1cc2c(s1)CCCO2 [Example I-15, N-(2-methyl-4-(2-((1-methyl-1H-pyrazol-4-yl)amino)pyrimidin-4-yl)benzyl)-6,7-dihydro-5H-thieno[3,2-b]pyran-2-carboxamide]	< 10	< 500
CCn1cc(Nc2nccc(-c3ccc(CNC(=O)N4CC(OC(C)C)C4)c(C)c3)n2)cn1 [Example I-360, N-[[4-[2-[(1-ethylpyrazol-4-yl)amino]pyrimidin-4-yl]-2-methyl-phenyl]methyl]-3-isopropoxy-azetidine-1-carboxamideacid]	< 10	< 500
Cc1cc(-c2cc(Nc3cc4n(n3)CCN(C)C4)ncn2)ccc1CN1CCc2c(cnn2C(C)(C)C)C1=O [Example I-309, 1-tert-butyl-5-[[2-methyl-4-[6-[(5-methyl-6,7-dihydro-4H-pyrazolo[1,5-a]pyrazin-2-yl)amino]pyrimidin-4-yl]phenyl]methyl]-6,7-dihydropyrazolo[4,3-c]pyridin-4-one]	< 10	< 500
